Source: US8957019B2, “Oligopeptide for treating liver fibrosis and/or treating hepatitis B and/or improving liver function” (priority 2011, dated 2015)
Where two headings read alike, the source gives them in different places. Marks after values point to notes of the source that are not given here. Peptide text beside a SMILES is read from it.

Tests used:
[1] = test system: mice with liver injury induced by carbon tetrachloride; test: acute liver injury of mice induced by carbon tetrachloride; assay type: in vivo, Kunming mice; conditions: for serum ALT activity / serum AST activity: blood 12 h after CCl4; for serum ALT activity / serum AST activity / GSH-PX activity of liver tissue / MDA content of liver tissue: x ± s, n = 12; for GSH-PX activity of liver tissue / MDA content of liver tissue: liver homogenate
Method: According to random number table, 60 male Kunming mice were divided into a normal control group, a model control group, a bifendate group, a heptapeptide large dose group and a heptapeptide small dose group, and the latter two groups were administered subcutaneously at 0.17 mg/kg and 0.085 mg/kg, respectively, once every two days for 7 d; the bifendate group was intragastric administered at 100 mg/kg once daily for 7 d; and the normal control group and model control group were administered subcutaneously with the same volume of physiological saline; after 1 h after the last administration, except for the normal control group, other groups were given olive oil solution comprising 0.15% carbon tetrachloride at 5 mL/kg by intraperitoneal injection. Each group was fasted but not restraint from water. Blood was taken from eyeball after 12 h, and the serum was separated for use. The mice were killed after the blood was taken, then dissected and the liver were taken out and homogenized for use. For mice from each group, the ALT, AST activities in the serum, and GSH-Px activity and MDA content in liver tissue were measured according to the kit instruction, and all data were expressed as mean±standard deviation (x±SD), and analysis of variance was used for the hypothesis test of mean value differences between each group.

rats with liver fibrosis = test: CCl4 liver fibrosis model of rats; assay type: in vivo, SD rats; conditions: for collogen area of liver tissue / serum ALT level / serum AST level: 8 weeks, x ± s, n = 12
Method: 2. Methods: 48 rats were randomly divided into a control group, a model group, a heptapeptide large dose group and a heptapeptide small dose group, each group contains 12 rats. CCI4was formulated into 40% solution with olive oil, and the solution was then injected subcutaneously to the animals at 5 ml/kg twice a week for 8 weeks; the intervention group with GAGPHGG was given the heptapeptide subcutaneously (the concentrations was 0.12 mg/kg and 0.06 mg/kg, respectively, once every two days, 8 weeks) while the model was setting up. The animals of each group were killed at 48 h after the last injection of CCI4, and then serum and liver tissue were taken for detection. The serum ALT, AST and TGFβ1 level were measured according to the kit instruction, and the liver tissue sample was fixed with neutral formalin solution and imbedded with paraffin. 5 ttm tissue section was made by using glass slide coated with polylysine, and it was then stained with HE and Masson triplication collogen for histopathological examination.

[2] = test system: duck hepatitis B virus (DHBV); assay type: in vivo, Beijing ducks; conditions: for A (3 d after administration was terminated), serum DHBV-DNA level: 3 d after stop; for A (3 d after administration was terminated), serum DHBV-DNA level / A (5 d after administration), serum DHBV-DNA level / A (10 d after administration), serum DHBV-DNA level / A (before administration), serum DHBV-DNA level: x ± s, n = 6; for A (5 d after administration), serum DHBV-DNA level: day 5 of administration; for A (10 d after administration), serum DHBV-DNA level: day 10 of administration; for A (before administration), serum DHBV-DNA level: baseline before administration, absorbance 490 nm
Method: 2.1 DHBV infection: Beijing ducks of one-day-old were administered from leg tibia (iv) with high DHBV-DNA positive duck serum. Blood was taken 7 d after infection, followed by the serum being separated and kept at -70° C.
2.2 experiment for pharmaceutical treatment: the DHBV infected ducks were divided into groups randomly, and for the heptapeptide administration groups, 0.5 mg/Kg and 1 mg/Kg were administered by subcutaneous injection, once every two days for 10 d, respectively. As for the virus control group, physiological saline was substituted for drugs. […] Venous blood was taken from the duck leg tibia before administration, on day 5 of administration, on day 10 of administration and 3 d after the administration was stopped. The serum was separated and kept at -70° C. for inspection.
2.3 detecting method: the duck serum for inspection above mentioned was taken and the dynamic level of DHBV-DNA in the serum was detected by simultaneous spotting each batch. DHBV-DNA probe was tagged with 32 p according to the instructions of nick translation kits, and then dot blot hybridization with the duck serum was carried out. The spots on the film were detected by radioautography, and the absorbance (A) (490 nm) was measured. Then density of serum DHBV-DNA was calculated by using the A value of hybridization spots as the level of DHBV-DNA in sample.
2.4 efficacy calculation: the x±s of serum DHBV-DNA levels at different time point for each group was calculated, and it is carried out to compare the states before and after administration for each group by using paired t-test. The inhibition ratio of DHBV-DNA was calculated and the dynamic change of the duck serum DHBV-DNA inhibition ratio for each group was compared. The administration groups were compared with the virus control group by using group t-test. The DHBV-DNA inhibition ratio=(A value before administration-A value after administration)/A value before administrationx100%.

[3] = 100 mg/kg intragastric once daily for 7 d
[4] = 0.06 mg/kg s.c. once every two days
[5] = 0.12 mg/kg s.c. once every two days
[6] = heptapeptide large dose, P<0.01
[7] = 0.5 mg/kg s.c. once every two days
[8] = 0.085 mg/kg s.c. once every two days for 7 d
[9] = 0.17 mg/kg s.c. once every two days for 7 d
[10] = large dose and small dose groups, P<0.01

SMILES: COC(=O)c1cc(OC)c2c(c1-c1c(C(=O)OC)cc(OC)c3c1OCO3)OCO2 [biphenyldicarboxylate, bifendate, reference compound]
- serum ALT activity [1, 3]: 92.36 ± 35.27 U/L
- serum AST activity [1, 3]: 156.24 ± 34.12 U/L
- GSH-PX activity of liver tissue [1, 3]: 296.82 ± 18.31 µmol/g
- MDA content of liver tissue [1, 3]: 5.29 ± 1.25 µmol/g

SMILES: C[C@H](NC(=O)CN)C(=O)NCC(=O)N1CCC[C@H]1C(=O)N[C@@H](Cc1c[nH]cn1)C(=O)NCC(=O)NCC(=O)O [heptapeptide, Gly-Ala-Gly-Pro-His-Gly-Gly] (H-GAGPHGG-OH; N-terminus assumed)
- collogen area of liver tissue (rats with liver fibrosis; [4]): 380.82 ± 78.89 μm^2
- serum ALT level (rats with liver fibrosis; [4]): 148.24 ± 32.52 U/L
- serum AST level (rats with liver fibrosis; [4]): 180.35 ± 28.49 U/L
- collogen area of liver tissue (rats with liver fibrosis; [5]): 138.12 ± 62.58** μm^2
- serum ALT level (rats with liver fibrosis; [5]): 96.37 ± 35.12 U/L
- serum AST level (rats with liver fibrosis; [5]): 108.75 ± 42.21 U/L
- mean area of liver collagen compared with model group (rats with liver fibrosis; [6]): also decreased significantly
- serum TGFβ1 level compared with model group (rats with liver fibrosis; [6]): decreased significantly
- serum TGFβ1 level and liver collagen area compared with model group (rats with liver fibrosis; heptapeptide small dose group): had a decreasing trend, but not statistically significant
- ALT and AST levels compared with model control group (rats with liver fibrosis; large dose (0.12 mg/kg) and small dose (0.06 mg/kg) groups, P<0.01): significantly declined
- anti-liver fibrosis effect (conclusion) (rats with liver fibrosis; rats, CCl4): has some anti-liver fibrosis effect
- A (3 d after administration was terminated), serum DHBV-DNA level ([2]; 0.5 mg/kg s.c. once every two days for 10 d): 1.184 ± 0.19
- A (5 d after administration), serum DHBV-DNA level [2, 7]: 1.239 ± 0.16
- A (10 d after administration), serum DHBV-DNA level [2, 7]: 1.198 ± 0.18
- inhibition of duck hepatitis B virus (conclusion) ([2]; 1 mg/kg): can inhibit duck hepatitis B virus to some extent
- A (3 d after administration was terminated), serum DHBV-DNA level ([2]; 1 mg/kg s.c. once every two days for 10 d, P < 0.01 vs control): 0.884 ± 0.16
- A (5 d after administration), serum DHBV-DNA level ([2]; 1 mg/kg s.c. once every two days): 1.204 ± 0.21
- A (10 d after administration), serum DHBV-DNA level ([2]; 1 mg/kg s.c. once every two days, P < 0.01 vs control): 0.893 ± 0.13
- A (before administration), serum DHBV-DNA level ([2]; heptapeptide 0.5 mg/kg s.c. once every two days for 10 d): 1.286 ± 0.12
- A (before administration), serum DHBV-DNA level ([2]; heptapeptide 1 mg/kg s.c. once every two days for 10 d): 1.274 ± 0.14
- serum ALT activity [1, 8]: 123.24 ± 19.73 U/L
- serum AST activity [1, 8]: 186.97 ± 37.56 U/L
- GSH-PX activity of liver tissue [1, 8]: 267.18 ± 32.13 µmol/g
- MDA content of liver tissue [1, 8]: 6.48 ± 1.65 µmol/g
- serum ALT activity [1, 9]: 86.52 ± 28.72 U/L
- serum AST activity [1, 9]: 148.62 ± 31.25 U/L
- GSH-PX activity of liver tissue [1, 9]: 308.28 ± 38.54 µmol/g
- MDA content of liver tissue [1, 9]: 2.75 ± 1.36 µmol/g
- serum ALT, AST activities compared with model control group ([1]; large dose (0.17 mg/kg) and small dose (0.085 mg/kg) groups, P <0.01): declined significantly
- liver tissue GSH-Px activities compared with model control group [1, 10]: significantly higher than that of the model control group
- liver tissue MDA content compared with model control group [1, 10]: significantly lower than that of the model control group
- protection for acute liver injury (conclusion) ([1]; mice, carbon tetrachloride): presents protection for the acute liver injury resulted from carbon tetrachloride
